The text below walks through data of PubChem BioAssay (NCI).

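Dose response: 5 concentrations. Exposure: 48 h. Format: 96-well plates. Endpoint: linear interpolation; highest concentration if not reached. TGI is the concentration that stops growth completely.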 Where a SMILES comes first, the peptide text is derived from it. Where only a bound is given, the exact number is not on record here.

Test systems include DLD-1 colon; DMS 114 small cell lung; KM20L2 colon; LXFL 529 NSCLC; RXF-631 renal.
Assay in all cases: NCI anticancer screen, dose series, 48 h

Regarding `CC1NC(=O)CNC(=O)CNC(=O)C(Cc2ccc(O)cc2)NC(=O)C(C(C)C)NC(=O)C(C)NC1=O` (configuration not stated) (cyclo(GGAAVY); configuration not given here), the TGI with DLD-1 colon and in the assay on DMS 114 small cell lung was more than 100 µM throughout.
`NC(N)=NCCCC(N=c1c2ccccc2n(O)c2ccccc12)C(=O)O` (configuration not stated): the TGI with DLD-1 colon, in the assay on DMS 114 small cell lung, with KM20L2 colon, in the assay on LXFL 529 NSCLC and with RXF-631 renal was more than 100 µM throughout.
`CN(C)c1nc(N(C)C)nc(N(C)C)n1`: the TGI with DLD-1 colon, in the assay on DMS 114 small cell lung, in the assay on KM20L2 colon and in the assay on LXFL 529 NSCLC was more than 150 µM in each case.
With `CC1=C2C(O)C(C(C)C(=O)NCC(C)C)CCC2(C)C=CC1=O` (configuration not stated), the TGI in the assay on DLD-1 colon, with DMS 114 small cell lung and in the assay on KM20L2 colon was more than 100 µM in each case.
`C=C1C(=O)O[C@@H]2[C@H]3O[C@]3(C)CCC=C(C)CC[C@@H]12`: the TGI stood at 28.4 µM in the assay with DLD-1 colon, 165 µM in the assay with DMS 114 small cell lung and 62.2 µM in the assay on KM20L2 colon.
